Holding throughout (format): biochemical
The target of one experiment is CSNK1A1 (Homo sapiens (Human), UniProt P48729). Kind of experiment: CSNK1A1 Assay 2 (ADP-Glo, 1 μM ATP). The following applies: median, read-out: CSNK1A1 Assay 2 IC50 [mol/l] (median). How it is done: CSNK1A1-inhibitory activity of compounds of the present invention in presence of 1 μM adenosine-tri-phosphate (ATP) was quantified employing the CSNK1A1 assay as described in the following paragraphs. In essence, the enzyme activity is measured by quantification of the adenosine-di-phosphate (ADP), which is generated as a co-product of the enzyme reaction, via the “ADP-Glo™ Kinase Assay” kit from the company Promega. This detection system works as follows: In a first step the ATP not consumed in the kinase reaction is quantitatively converted to cAMP employing an adenylate cyclase (“ADP-Glo-reagent”), then the adenylate cyclase is stopped and the ADP generated in the kinase reaction converted to ATP which generates in a luciferase-based reaction a glow-luminescence signal (“Kinase Detection Reagent”).
As substrate for the kinase reaction the biotinylated peptide biotin-Ahx-KRRRAL-pS-VASLPGL (C-terminus in amide form) was used which can be purchased e.g. from the company Biosyntan (Berlin-Buch, Germany).
For the assay 50 nl of a 100 fold concentrated solution of the test compound in DMSO was pipetted into a white 1536-well microtiter plate (Greiner Bio-One, Frickenhausen, Germany), 2 μL of a solution of CSNK1A1 in aqueous assay buffer [50 mM HEPES pH 7.5, 10% (v/v) glycerol, 10 mM MgCl2, 50 mM NaCl, 1 mM dithiothreitol, 0.01% (w/v) bovine serum albumin, 0.01% (v/v) Triton X-100] were added and the mixture was incubated for 15 min at 22° C. to allow pre-binding of the test compounds to the enzyme before the start of the kinase reaction. […] The concentration of CSNK1A1 was adjusted depending of the activity of the enzyme lot and was chosen appropriate to have the assay in the linear range, a typical concentrations are about 0.0375 ng/μL. The reaction was stopped by the addition of 2.5 μL of “ADP-Glo-reagent” (1:1.5 fold diluted with water) and the resulting mixture was incubated at 22° C. for 1 h to convert the ATP not consumed in the kinase reaction completely […]. Subsequently 2.5 μL of the “kinase detection reagent” (1.2 fold more concentrated than recommended by the producer) were added, the resulting mixture was incubated at 22° C. for 1 h and then the luminescence measured with a suitable measurement instrument (e.g. Viewlux™ from Perkin-Elmer). The amount of emitted light was taken as a measure for the amount of ADP generated and thereby for the activity of the CSNK1A1.

The target of another experiment is CSNK1D (Homo sapiens (Human), UniProt P48730). Kind of experiment: CSNK1D Assay (ADP-Glo, 1 μM ATP). The settings on record: median, read-out: CSNK1D IC50 [mol/l] (median). The method, then: CSNK1D-inhibitory activity of compounds of the present invention in presence of 1 μM adenosine-tri-phosphate (ATP) was quantified employing the CSNK1 D assay as described in the following paragraphs. In essence, the enzyme activity is measured by quantification of the adenosine-di-phosphate (ADP), which is generated as a co-product of the enzyme reaction, via the “ADP-Glo™ Kinase Assay” kit from the company Promega. This detection system works as follows: In a first step the ATP not consumed in the kinase reaction is quantitatively converted to cAMP employing an adenylate cyclase (“ADP-Glo-reagent”), then the adenylate cyclase is stopped and the ADP generated in the kinase reaction converted to ATP which generates in a luciferase-based reaction a glow-luminescence signal (“Kinase Detection Reagent”).
As substrate for the kinase reaction the biotinylated peptide Btn-Ahx-[…] (C-terminus in amide form) was used which can be purchased e.g. from the company Biosyntan (Berlin-Buch, Germany).
For the assay 50 nl of a 100 fold concentrated solution of the test compound in DMSO was pipetted into a white 1536-well microtiter plate (Greiner Bio-One, Frickenhausen, Germany), 2 μL of a solution of CSNK1D in aqueous assay buffer [50 mM HEPES pH 7.5, 10% (v/v) glycerol, 10 mM MgCl2, 50 mM NaCl, 1 mM dithiothreitol, 0.01% (w/v) bovine serum albumin, 0.01% (v/v) Triton X-100] were added and the mixture was incubated for 15 min at 22° C. to allow pre-binding of the test compounds to the enzyme before the start of the kinase reaction. […] The concentration of CSNK1D was adjusted depending of the activity of the enzyme lot and was chosen appropriate to have the assay in the linear range, a typical concentration is about 0.5 ng/μL. The reaction was stopped by the addition of 2.5 μL of “ADP-Glo-reagent” (1:1.5 fold diluted with water) and the resulting mixture was incubated at 22° C. for 1 h to convert the ATP not consumed in the kinase reaction completely […]. Subsequently 2.5 μL of the “kinase detection reagent” (1.2 fold more concentrated than recommended by the producer) were added, the resulting mixture was incubated at 22° C. for 1 h and then the luminescence measured with a suitable measurement instrument (e.g. Viewlux™ from Perkin-Elmer). The amount of emitted light was taken as a measure for the amount of ADP generated and thereby for the activity of the CSNK1D.

Experiment [1] deals with wild-type Epidermal Growth Factor Receptor (EGFR) (Homo sapiens (Human), UniProt P00533). Kind of experiment: WT-EGFR Kinase Assay (TR-FRET, 2 mM ATP). The following applies: EGFR Wildtyp 2 mM ATP IC50 [mol/l] (median), median or individual measurements. The method, boiled down: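 TR-FRET read-out of biotinylated peptide phosphorylation, taken as the 665/622 nm ratio after EDTA stop and 1 h detection at 22° C. Kinase: GST fusion of human EGFR aa R669–A1210, given a 15 min compound pre-binding step; reaction run at 2 mM ATP.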

Molecules are shown by their SMILES. pIC50: −log10 of the molar value. Where only a bound is given, the exact number is not on record here.

Chain of CSNK1A1 (P48729 whole entry): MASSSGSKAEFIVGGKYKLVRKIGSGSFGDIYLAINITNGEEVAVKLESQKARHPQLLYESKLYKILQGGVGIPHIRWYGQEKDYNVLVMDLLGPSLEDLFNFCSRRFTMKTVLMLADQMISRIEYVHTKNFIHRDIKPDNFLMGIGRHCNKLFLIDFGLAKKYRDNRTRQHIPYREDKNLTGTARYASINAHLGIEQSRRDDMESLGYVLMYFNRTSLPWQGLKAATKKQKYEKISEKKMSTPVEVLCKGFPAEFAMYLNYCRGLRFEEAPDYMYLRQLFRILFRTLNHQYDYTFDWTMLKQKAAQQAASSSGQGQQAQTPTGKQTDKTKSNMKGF
Chain of CSNK1D (P48730 whole entry): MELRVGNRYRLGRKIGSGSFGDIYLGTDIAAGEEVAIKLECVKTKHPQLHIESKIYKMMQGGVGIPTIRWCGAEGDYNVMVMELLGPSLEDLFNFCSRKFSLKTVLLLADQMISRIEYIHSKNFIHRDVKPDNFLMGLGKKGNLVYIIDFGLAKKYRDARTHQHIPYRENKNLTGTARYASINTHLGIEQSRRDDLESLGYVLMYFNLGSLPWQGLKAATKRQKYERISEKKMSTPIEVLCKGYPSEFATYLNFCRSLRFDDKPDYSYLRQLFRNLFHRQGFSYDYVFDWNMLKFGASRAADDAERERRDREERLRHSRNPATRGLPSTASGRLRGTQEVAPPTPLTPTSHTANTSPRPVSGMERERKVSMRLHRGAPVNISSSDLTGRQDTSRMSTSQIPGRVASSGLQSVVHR
Chain of wild-type Epidermal Growth Factor Receptor (EGFR) (P00533 669-1210): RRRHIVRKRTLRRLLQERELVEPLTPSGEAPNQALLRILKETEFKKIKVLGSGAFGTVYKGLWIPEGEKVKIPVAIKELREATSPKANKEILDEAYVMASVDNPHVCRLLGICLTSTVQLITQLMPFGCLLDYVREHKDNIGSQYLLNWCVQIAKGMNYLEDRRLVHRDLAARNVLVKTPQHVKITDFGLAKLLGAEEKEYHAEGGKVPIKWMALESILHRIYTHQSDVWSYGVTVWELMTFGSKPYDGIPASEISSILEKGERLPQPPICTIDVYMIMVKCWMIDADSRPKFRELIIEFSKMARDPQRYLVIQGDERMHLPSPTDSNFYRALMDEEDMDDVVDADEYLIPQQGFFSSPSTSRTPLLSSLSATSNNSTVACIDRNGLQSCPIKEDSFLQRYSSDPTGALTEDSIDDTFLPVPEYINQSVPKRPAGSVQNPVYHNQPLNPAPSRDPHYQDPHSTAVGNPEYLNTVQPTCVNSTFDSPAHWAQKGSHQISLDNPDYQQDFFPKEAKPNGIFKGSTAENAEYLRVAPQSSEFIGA

Take `CN1CCc2[nH]c(-c3ccnc(NC(=O)C(CC(F)F)c4ccc(F)cc4)c3)c(-c3ccccc3)c2C1=O` (racemic) [Example 2, 4,4-difluoro-2-(4-fluorophenyl)-N-[4-(5-methyl-4-oxo-3-phenyl-4,5,6,7-tetrahydro-1H-pyrrolo[3,2-c]pyridin-2-yl)pyridin-2-yl]butanamide]: the pIC50 was 8.77 on CSNK1A1 and 8.48 on CSNK1D.

Take `CN1CCc2[nH]c(-c3ccnc(NC(=O)C(CC(F)F)c4ccc(F)cc4)c3)c(-c3cccnc3)c2C1=O` (racemic) [Example 9, 4,4-difluoro-2-(4-fluorophenyl)-N-{4-[5-methyl-4-oxo-3-(pyridin-3-yl)-4,5,6,7-tetrahydro-1H-pyrrolo[3,2-c]pyridin-2-yl]pyridin-2-yl}butanamide]: the pIC50 on CSNK1A1 is 8.11; on CSNK1D it was 8.04.

As for `CC(C(=O)Nc1cc(-c2[nH]c3c(CC(F)(F)F)cn(C)c(=O)c3c2-c2ccccc2)ccn1)c1ccc(F)cc1` (racemic) [Example 14, 2-(4-fluorophenyl)-N-{4-[5-methyl-4-oxo-3-phenyl-7-(2,2,2-trifluoroethyl)-4,5-dihydro-1H-pyrrolo[3,2-c]pyridin-2-yl]pyridin-2-yl}propanamide], the pIC50 on CSNK1A1 is 8.33; at CSNK1D, 8.57.

For the compound `Cn1cc(CC(F)(F)F)c2[nH]c(-c3ccnc(NC(=O)C(CC(F)F)c4ccc(F)cc4)c3)c(-c3ccccc3)c2c1=O` (racemic) [Example 18, 4,4-difluoro-2-(4-fluorophenyl)-N-{4-[5-methyl-4-oxo-3-phenyl-7-(2,2,2-trifluoroethyl)-4,5-dihydro-1H-pyrrolo[3,2-c]pyridin-2-yl]pyridin-2-yl}butanamide], the values for the pIC50 on CSNK1A1 and at CSNK1D were 8.23 and 8.51, respectively.

Regarding `CC(C(=O)Nc1cc(-c2[nH]c3c(CC(F)(F)F)cn(C)c(=O)c3c2-c2ccc(F)cc2)ccn1)c1ccc(F)cc1` (racemic) [Example 22, 2-(4-fluorophenyl)-N-{4-[3-(4-fluorophenyl)-5-methyl-4-oxo-7-(2,2,2-trifluoroethyl)-4,5-dihydro-1H-pyrrolo[3,2-c]pyridin-2-yl]pyridin-2-yl}propanamide], the figures for the pIC50 at CSNK1A1 and on CSNK1D were 8.21 and 8.49, respectively.

With `Cn1cc(CC(F)(F)F)c2[nH]c(-c3ccnc(NC(=O)C(CC(F)F)c4ccc(F)cc4)c3)c(-c3ccc(F)cc3)c2c1=O` (racemic) [Example 26, 4,4-difluoro-2-(4-fluorophenyl)-N-{4-[3-(4-fluorophenyl)-5-methyl-4-oxo-7-(2,2,2-trifluoroethyl)-4,5-dihydro-1H-pyrrolo[3,2-c]pyridin-2-yl]pyridin-2-yl}butanamide], the figures for the pIC50 on CSNK1A1 and at CSNK1D were 7.96 and 8.15, respectively.

With `Cc1cn(C)c(=O)c2c(-c3ccc(F)cc3)c(-c3ccnc(NC(=O)C(C)c4ccc(F)cc4)c3)[nH]c12` (racemic) [Example 30, 2-(4-fluorophenyl)-N-{4-[3-(4-fluorophenyl)-5,7-dimethyl-4-oxo-4,5-dihydro-1H-pyrrolo[3,2-c]pyridin-2-yl]pyridin-2-yl}propanamide], the pIC50 at CSNK1A1 is 8.24; on CSNK1D, 8.42.

For `Cc1cn(C)c(=O)c2c(-c3ccc(F)cc3)c(-c3ccnc(NC(=O)C(CC(F)F)c4ccc(F)cc4)c3)[nH]c12` (racemic) [Example 34, 4,4-difluoro-2-(4-fluorophenyl)-N-{4-[3-(4-fluorophenyl)-5,7-dimethyl-4-oxo-4,5-dihydro-1H-pyrrolo[3,2-c]pyridin-2-yl]pyridin-2-yl}butanamide], the values for the pIC50 on CSNK1A1 and on CSNK1D were 8.24 and 8.28, respectively.

As for `Cc1cn(C)c(=O)c2c(-c3ccccc3)c(-c3ccnc(NC(=O)C(C)c4ccc(F)cc4)c3)[nH]c12` (racemic) [Example 38, N-[4-(5,7-dimethyl-4-oxo-3-phenyl-4,5-dihydro-1H-pyrrolo[3,2-c]pyridin-2-yl)pyridin-2-yl]-2-(4-fluorophenyl)propanamide], the pIC50 at CSNK1A1 is 8.11; at CSNK1D, 8.15.

`Cc1cn(C)c(=O)c2c(-c3ccccc3)c(-c3ccnc(NC(=O)C(CC(F)F)c4ccc(F)cc4)c3)[nH]c12` (racemic) [Example 40, N-[4-(5,7-dimethyl-4-oxo-3-phenyl-4,5-dihydro-1H-pyrrolo[3,2-c]pyridin-2-yl)pyridin-2-yl]-4,4-difluoro-2-(4-fluorophenyl)butanamide]: the pIC50 at CSNK1A1 and at CSNK1D was 8.40 each time.

With `CC1(C)CNC(=O)c2c1[nH]c(-c1ccnc(NC(=O)C(CC(F)F)c3ccc(F)cc3)c1)c2-c1ccccc1` (racemic) [Example 43, N-[4-(7,7-dimethyl-4-oxo-3-phenyl-4,5,6,7-tetrahydro-1H-pyrrolo[3,2-c]pyridin-2-yl)pyridin-2-yl]-4,4-difluoro-2-(4-fluorophenyl)butanamide], the pIC50 is 8.59 on CSNK1A1 and 8.57 at CSNK1D.

In the case of `CC(C(=O)Nc1cc(-c2[nH]c3c(c2-c2ccccc2)C(=O)NCC3(C)C)ccn1)c1ccc(F)cc1` (racemic) [Example 46, N-[4-(7,7-dimethyl-4-oxo-3-phenyl-4,5,6,7-tetrahydro-1H-pyrrolo[3,2-c]pyridin-2-yl)pyridin-2-yl]-2-(4-fluorophenyl)propanamide], the pIC50 is 8.57 at CSNK1A1 and 8.48 at CSNK1D.

On to `CN1C(=O)c2c([nH]c(-c3ccnc(NC(=O)C(CC(F)F)c4ccc(F)cc4)c3)c2-c2ccccc2)CC12CCC2` (racemic) [Example 49, 4,4-difluoro-2-(4-fluorophenyl)-N-[4-(5′-methyl-4′-oxo-3′-phenyl-1′,4′,5′,7′-tetrahydrospiro[cyclobutane-1,6′-pyrrolo[3,2-c]pyridin]-2′-yl)pyridin-2-yl]butanamide], for which the pIC50 at CSNK1A1 is 8.34; on CSNK1D, 8.35.

For `O=C(Nc1cc(-c2[nH]c3cc[nH]c(=O)c3c2-c2ccccc2)ccn1)C(CC(F)F)c1ccc(F)cc1` (racemic) [Example 76, 4,4-difluoro-2-(4-fluorophenyl)-N-[4-(4-oxo-3-phenyl-4,5-dihydro-1H-pyrrolo[3,2-c]pyridin-2-yl)pyridin-2-yl]butanamide], the pIC50 was 8.70 at CSNK1A1 and less than 4.70 in experiment [1].

The values above are taken from US20230322767A1, “ARYL SUBSTITUTED PYRROLO-PYRIDINONES AND THERAPEUTIC USES THEREOF” (Bayer Aktiengesellschaft, priority 2020, published 2023).
